# Laboratory results taken from PubChem BioAssay (NCI).
# Where “and” joins values, the source holds several entries; their conditions need not be identical. Equal entries are not always repeated.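 Following 48 hours of exposure in 96-well plates, responses at five concentrations were used to interpolate endpoints linearly. GI50: concentration for 50% inhibition of growth. TGI: total growth inhibition.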
# Tested on: HL-60(TB) leukemia
# Test: inhibition of tumour cell growth, NCI panel, 48 h
Molecule,GI50,TGI
CN1CCN(c2ccc3nc(-c4ccc(OCCCCN5CCN(CCCCN6C(=O)c7cccc8cccc(c78)C6=O)CC5)cc4)[nH]c3c2)CC1,25.1 µM,> 100 µM
CC1=C(N2CC2)C(=O)c2ccccc2C1=O,–,17.1 µM
NC(=O)c1ccc(N(C(N)=O)c2c(F)cccc2F)nc1-c1ccc(F)cc1F,> 100 µM,> 100 µM
Cc1ccc(S(=O)(=O)NC(CO)C(=O)O)cc1 (centres undefined),–,> 100 µM
H-QIYKKYRTWYRKAWKVLGKV-NH2,2.84 µM,8.76 µM
COc1cccc(NC2=C(Cl)C(=O)N(Cc3ccc(Cl)cc3)C2=O)c1,3.15 µM,60.8 µM
CC(N1CCOCC1)C(O)(c1ccccc1)c1ccccn1 (centres undefined),–,> 100 µM
CC(/C=N/N=C(N)N)=N\N=C(N)N,69.1 µM,578 µM
O=C(CCCCCCCCC(=O)N/N=C\c1cc(Cl)ccc1O)N/N=C\c1cc(Cl)ccc1O,0.164 µM,0.571 µM
Oc1ccc(Cl)cc1/C=N\NC(=S)N/N=C/c1cc(Cl)ccc1O,1.37 µM,4.23 µM
CN=C(N)N/N=C(\C)c1ccc2c(c1)Cc1ccccc1-2,0.399 µM,1.94 µM
COc1cc(Cn2c(-c3ccccc3)cc3c2-c2oncc2CC3)cc(OC)c1,0.264 µM,2.73 µM
COc1cc2c(cc1OCCCOc1ccc(-c3nc4ccc(N5CCN(C)CC5)cc4[nH]3)cc1)N=C[C@@H]1CCCN1C2=O,< 0.01 µM,< 0.01 µM
Cc1ccc(-c2n[nH]c(=O)c3noc(-c4ccc(C)cc4)c23)cc1,0.31 µM,> 100 µM
Nc1ccn(C2OC(C(OC3OC(CO)C(O)C(N)C3O)C(O)C(O)C(O)C(O)CO)C(N)C(O)C2O)c(=O)n1 (centres undefined),–,> 100 µM
O=C(c1ccc2ccccc2c1)c1c(C(F)(F)F)n([O-])c2ccc(F)cc2[n+]1=O,0.266 µM,2.23 µM
COc1ccc2c(c1)/C(=N/OC(C)=O)c1c-2cnc2ccccc12,19.6 µM,67 µM
CCOC(=O)c1c(C)n(Cc2ccccc2)c2c1cc1oc(=O)c(=O)n3cnc2c13,14.5 µM,> 50 µM
CN(C(=O)CNC(=O)/C=C/c1cccc(Cl)c1)C1CCS(=O)(=O)CC1,2.07 µM,> 100 µM
O=C(Nc1nc2ccccc2s1)c1cc(-c2ccc(F)cc2)n2nc(-c3ccccc3)cc2n1,> 100 µM,> 100 µM

# Tested on: IGROV1 ovarian
# Test: inhibition of tumour cell growth, NCI panel, 48 h
Molecule,GI50,TGI
CN1CCN(c2ccc3nc(-c4ccc(OCCCCN5CCN(CCCCN6C(=O)c7cccc8cccc(c78)C6=O)CC5)cc4)[nH]c3c2)CC1,48.4 µM,> 100 µM
CC1=C(N2CC2)C(=O)c2ccccc2C1=O,–,8.58 µM
NC(=O)c1ccc(N(C(N)=O)c2c(F)cccc2F)nc1-c1ccc(F)cc1F,> 100 µM,> 100 µM
Cc1ccc(S(=O)(=O)NC(CO)C(=O)O)cc1 (centres undefined),–,> 100 µM
H-QIYKKYRTWYRKAWKVLGKV-NH2,3.06 µM,14.1 µM
COc1cccc(NC2=C(Cl)C(=O)N(Cc3ccc(Cl)cc3)C2=O)c1,11.9 µM,> 37.4 µM
CC(N1CCOCC1)C(O)(c1ccccc1)c1ccccn1 (centres undefined),–,> 100 µM
CC(/C=N/N=C(N)N)=N\N=C(N)N,–,1640 µM
O=C(CCCCCCCCC(=O)N/N=C\c1cc(Cl)ccc1O)N/N=C\c1cc(Cl)ccc1O,0.83 µM,> 100 µM
Oc1ccc(Cl)cc1/C=N\NC(=S)N/N=C/c1cc(Cl)ccc1O,2.52 µM,> 100 µM
CN=C(N)N/N=C(\C)c1ccc2c(c1)Cc1ccccc1-2,3.74 µM,19.5 µM
COc1cc(Cn2c(-c3ccccc3)cc3c2-c2oncc2CC3)cc(OC)c1,0.399 µM,> 100 µM
Cc1ccc(-c2n[nH]c(=O)c3noc(-c4ccc(C)cc4)c23)cc1,1.89 µM,28.6 µM
Nc1ccn(C2OC(C(OC3OC(CO)C(O)C(N)C3O)C(O)C(O)C(O)C(O)CO)C(N)C(O)C2O)c(=O)n1 (centres undefined),–,> 100 µM
COc1ccc2c(c1)/C(=N/OC(C)=O)c1c-2cnc2ccccc12,25.3 µM,52 µM
CCOC(=O)c1c(C)n(Cc2ccccc2)c2c1cc1oc(=O)c(=O)n3cnc2c13,28.1 µM,> 50 µM
CN(C(=O)CNC(=O)/C=C/c1cccc(Cl)c1)C1CCS(=O)(=O)CC1,3.05 µM,> 100 µM
O=C(Nc1nc2ccccc2s1)c1cc(-c2ccc(F)cc2)n2nc(-c3ccccc3)cc2n1,4.36 µM,> 100 µM
C/C(=N/O)c1ccc(Nc2cc(-n3ccnc3)c3ccccc3n2)cc1,15.1 µM,52.8 µM
NNC(=O)C(O)C(O)C(=O)NN (centres undefined),–,> 100 µM

# Tested on: M14 melanoma
# Test: inhibition of tumour cell growth, NCI panel, 48 h
Molecule,GI50,TGI
CN1CCN(c2ccc3nc(-c4ccc(OCCCCN5CCN(CCCCN6C(=O)c7cccc8cccc(c78)C6=O)CC5)cc4)[nH]c3c2)CC1,> 100 µM,> 100 µM
CC1=C(N2CC2)C(=O)c2ccccc2C1=O,–,5.03 µM
NC(=O)c1ccc(N(C(N)=O)c2c(F)cccc2F)nc1-c1ccc(F)cc1F,> 100 µM,> 100 µM
Cc1ccc(S(=O)(=O)NC(CO)C(=O)O)cc1 (centres undefined),–,> 100 µM
H-QIYKKYRTWYRKAWKVLGKV-NH2,3.06 µM,14.1 µM
COc1cccc(NC2=C(Cl)C(=O)N(Cc3ccc(Cl)cc3)C2=O)c1,1.66 µM,7.71 µM
CC(N1CCOCC1)C(O)(c1ccccc1)c1ccccn1 (centres undefined),–,> 100 µM
CC(/C=N/N=C(N)N)=N\N=C(N)N,–,425 µM
O=C(CCCCCCCCC(=O)N/N=C\c1cc(Cl)ccc1O)N/N=C\c1cc(Cl)ccc1O,0.221 µM,8.69 µM
CN=C(N)N/N=C(\C)c1ccc2c(c1)Cc1ccccc1-2,1.65 µM,3.02 µM
COc1cc(Cn2c(-c3ccccc3)cc3c2-c2oncc2CC3)cc(OC)c1,0.299 µM,–
COc1cc2c(cc1OCCCOc1ccc(-c3nc4ccc(N5CCN(C)CC5)cc4[nH]3)cc1)N=C[C@@H]1CCCN1C2=O,< 0.01 µM,< 0.01 µM
Cc1ccc(-c2n[nH]c(=O)c3noc(-c4ccc(C)cc4)c23)cc1,0.422 µM,> 100 µM
Nc1ccn(C2OC(C(OC3OC(CO)C(O)C(N)C3O)C(O)C(O)C(O)C(O)CO)C(N)C(O)C2O)c(=O)n1 (centres undefined),–,> 100 µM
O=C(c1ccc2ccccc2c1)c1c(C(F)(F)F)n([O-])c2ccc(F)cc2[n+]1=O,1.67 µM,3.11 µM
COc1ccc2c(c1)/C(=N/OC(C)=O)c1c-2cnc2ccccc12,29.6 µM,> 100 µM
CCOC(=O)c1c(C)n(Cc2ccccc2)c2c1cc1oc(=O)c(=O)n3cnc2c13,18.3 µM,> 50 µM
CN(C(=O)CNC(=O)/C=C/c1cccc(Cl)c1)C1CCS(=O)(=O)CC1,1.48 µM,> 100 µM
O=C(Nc1nc2ccccc2s1)c1cc(-c2ccc(F)cc2)n2nc(-c3ccccc3)cc2n1,3.13 µM,> 100 µM
C/C(=N/O)c1ccc(Nc2cc(-n3ccnc3)c3ccccc3n2)cc1,5.75 µM,> 100 µM
NNC(=O)C(O)C(O)C(=O)NN (centres undefined),–,> 100 µM

# Tested on: MALME-3M melanoma
# Test: inhibition of tumour cell growth, NCI panel, 48 h
Molecule,GI50,TGI
CN1CCN(c2ccc3nc(-c4ccc(OCCCCN5CCN(CCCCN6C(=O)c7cccc8cccc(c78)C6=O)CC5)cc4)[nH]c3c2)CC1,20.9 µM,42.6 µM
CC1=C(N2CC2)C(=O)c2ccccc2C1=O,–,2.65 µM
NC(=O)c1ccc(N(C(N)=O)c2c(F)cccc2F)nc1-c1ccc(F)cc1F,> 100 µM,> 100 µM
Cc1ccc(S(=O)(=O)NC(CO)C(=O)O)cc1 (centres undefined),–,> 100 µM
COc1cccc(NC2=C(Cl)C(=O)N(Cc3ccc(Cl)cc3)C2=O)c1,1.17 µM,14.1 µM
CC(N1CCOCC1)C(O)(c1ccccc1)c1ccccn1 (centres undefined),–,> 100 µM
CC(/C=N/N=C(N)N)=N\N=C(N)N,> 39.6 µM,> 76.9 µM and 214 µM
O=C(CCCCCCCCC(=O)N/N=C\c1cc(Cl)ccc1O)N/N=C\c1cc(Cl)ccc1O,0.462 µM,> 100 µM
Oc1ccc(Cl)cc1/C=N\NC(=S)N/N=C/c1cc(Cl)ccc1O,2.14 µM,52.7 µM
CN=C(N)N/N=C(\C)c1ccc2c(c1)Cc1ccccc1-2,1.51 µM,3.02 µM
COc1cc2c(cc1OCCCOc1ccc(-c3nc4ccc(N5CCN(C)CC5)cc4[nH]3)cc1)N=C[C@@H]1CCCN1C2=O,< 0.01 µM,< 0.01 µM
Cc1ccc(-c2n[nH]c(=O)c3noc(-c4ccc(C)cc4)c23)cc1,1.09 µM,23.4 µM
O=C(c1ccc2ccccc2c1)c1c(C(F)(F)F)n([O-])c2ccc(F)cc2[n+]1=O,0.397 µM,2.3 µM
COc1ccc2c(c1)/C(=N/OC(C)=O)c1c-2cnc2ccccc12,16.2 µM,39.1 µM
CN(C(=O)CNC(=O)/C=C/c1cccc(Cl)c1)C1CCS(=O)(=O)CC1,3.45 µM,> 100 µM
O=C(Nc1nc2ccccc2s1)c1cc(-c2ccc(F)cc2)n2nc(-c3ccccc3)cc2n1,3.74 µM,> 100 µM
C/C(=N/O)c1ccc(Nc2cc(-n3ccnc3)c3ccccc3n2)cc1,11.4 µM,44.5 µM
NNC(=O)C(O)C(O)C(=O)NN (centres undefined),–,> 100 µM

# Tested on: MDA-MB-231 breast
# Test: inhibition of tumour cell growth, NCI panel, 48 h
Molecule,GI50,TGI
CN1CCN(c2ccc3nc(-c4ccc(OCCCCN5CCN(CCCCN6C(=O)c7cccc8cccc(c78)C6=O)CC5)cc4)[nH]c3c2)CC1,54.7 µM,> 100 µM
CC1=C(N2CC2)C(=O)c2ccccc2C1=O,–,32.8 µM
NC(=O)c1ccc(N(C(N)=O)c2c(F)cccc2F)nc1-c1ccc(F)cc1F,> 100 µM,> 100 µM
Cc1ccc(S(=O)(=O)NC(CO)C(=O)O)cc1 (centres undefined),–,> 100 µM
H-QIYKKYRTWYRKAWKVLGKV-NH2,4.35 µM,17.9 µM
COc1cccc(NC2=C(Cl)C(=O)N(Cc3ccc(Cl)cc3)C2=O)c1,2.15 µM,–
CC(N1CCOCC1)C(O)(c1ccccc1)c1ccccn1 (centres undefined),–,> 100 µM
CC(/C=N/N=C(N)N)=N\N=C(N)N,7.67 µM,965 µM
O=C(CCCCCCCCC(=O)N/N=C\c1cc(Cl)ccc1O)N/N=C\c1cc(Cl)ccc1O,0.265 µM,> 82.6 µM
Oc1ccc(Cl)cc1/C=N\NC(=S)N/N=C/c1cc(Cl)ccc1O,1.84 µM,27.6 µM
CN=C(N)N/N=C(\C)c1ccc2c(c1)Cc1ccccc1-2,1.78 µM,4.31 µM
COc1cc(Cn2c(-c3ccccc3)cc3c2-c2oncc2CC3)cc(OC)c1,0.694 µM,> 24.2 µM
COc1cc2c(cc1OCCCOc1ccc(-c3nc4ccc(N5CCN(C)CC5)cc4[nH]3)cc1)N=C[C@@H]1CCCN1C2=O,< 0.01 µM,< 0.01 µM
Cc1ccc(-c2n[nH]c(=O)c3noc(-c4ccc(C)cc4)c23)cc1,1.77 µM,39.8 µM
Nc1ccn(C2OC(C(OC3OC(CO)C(O)C(N)C3O)C(O)C(O)C(O)C(O)CO)C(N)C(O)C2O)c(=O)n1 (centres undefined),–,41.1 µM
O=C(c1ccc2ccccc2c1)c1c(C(F)(F)F)n([O-])c2ccc(F)cc2[n+]1=O,1.48 µM,3.02 µM
COc1ccc2c(c1)/C(=N/OC(C)=O)c1c-2cnc2ccccc12,22.1 µM,59.4 µM
CCOC(=O)c1c(C)n(Cc2ccccc2)c2c1cc1oc(=O)c(=O)n3cnc2c13,13 µM,> 50 µM
CN(C(=O)CNC(=O)/C=C/c1cccc(Cl)c1)C1CCS(=O)(=O)CC1,0.525 µM,> 100 µM
O=C(Nc1nc2ccccc2s1)c1cc(-c2ccc(F)cc2)n2nc(-c3ccccc3)cc2n1,2.36 µM,5.61 µM
C/C(=N/O)c1ccc(Nc2cc(-n3ccnc3)c3ccccc3n2)cc1,8.81 µM,38.2 µM
